Counter-ions that a name gives are not always drawn. Like-named read-outs stand apart in the source and are kept apart here. Each block holds one molecule with its values, some of them ahead of it.
Molecular target: T1, 5-HT2A receptor (Homo sapiens, UniProt P28223)
T1 construct: expressed in transfected cells; host or cells: NIH3T3 cells, pSI expression vector
Assay: R-SAT functional receptor assay
Format: cell-based
Details: for Emax: 120 h
Protocol: The functional receptor assay, Receptor Selection and Amplification Technology (R-SAT), was used (with minor modifications from that previously described U.S. Pat. No. 5,707,798) to screen compounds for efficacy at the 5-HT2A receptor. Briefly, NIH3T3 cells were grown in 96 well tissue culture plates to 70-80% confluence. Cells were transfected for 12-16 hours with plasmid DNAs using superfect (Qiagen Inc.) as per manufacture's protocols. R-SAT's were generally performed with 50 ng/well of receptor and 20 ng/well of Beta-galactosidase plasmid DNA. All receptor and G-protein constructs used were in the pSI mammalian expression vector (Promega Inc) as described in U.S. Pat. No. 5,707,798. The 5HT2A receptor gene was amplified by nested PCR from brain cDNA using the oligodeoxynucleotides based on the published sequence (see Saltzman et. al. Biochem. Biophys. Res. Comm. 181:1469-78 (1991)). Large-scale transfections, cells were transfected for 12-16 hours, then trypsinized and frozen in DMSO. Frozen cells were later thawed, plated at 10,000-40,000 cells per well of a 96 well plate that contained drug. With both methods, cells were then grown in a humidified atmosphere with 5% ambient CO2 for five days. Media was then removed from the plates and marker gene activity was measured by the addition of the beta-galactosidase substrate ONPG (in PBS with 5% NP-40). The resulting colorimetric reaction was measured in a spectrophotometric plate reader (Titertek Inc.)at […]. All data were analyzed using the computer program XLFit (IDBSm). Efficacy is the percent maximal repression compared to repression by a control compound (ritanserin in the case of 5HT2A). pIC50 is the negative of the log(IC50), where IC50 is the calculated concentration in Molar that produces 50% maximal repression.
Briefly, the 5-HT2A receptor, and the alpha subunit of the guanine nucleotide binding protein Gq were transiently transfected into NIH3T3 cells and assayed using the functional receptor assay, Receptor Selection and Amplification Technology (R-SAT) essentially as disclosed in U.S. Pat. No. 5,707,798. Each compound was screened at seven serially diluted concentrations in triplicate. Data were analyzed using least squares fit analysis with GraphPad Prism (San Diego, Calif.), and are reported normalized to percent response.
R-SAT assays (as described in Example 42) were carried out with cells transfected with receptors (listed below) to determine the receptor selectivity profile for compound 26HCH16D. 5HT2A inverse agonist data (IC50 nM; % efficacy) were derived from detailed dose response curves (7 points in triplicate).
(§1) The functional receptor assay, Receptor Selection and Amplification Technology (R-SAT), was used (with minor modifications from that previously described U.S. Pat. No. 5,707,798) to screen compounds for efficacy at the 5-HT2A receptor. The RSAT assay was conducted as described herein.
as §1, with “5,707,798, which is incorporated herein by reference in its entirety)” for “5,707,798)”

[1] = pIC50 (average), inverse agonist
[2] = percent maximal repression compared to ritanserin
[3] = read-out: Percent Efficacy, compared to ritanserin
[4] = Table 3, read-out: pIC50 (converted)
[5] = inverse agonist, read-out: pIC50 (average) (converted)

T1 sequence (P28223 whole entry): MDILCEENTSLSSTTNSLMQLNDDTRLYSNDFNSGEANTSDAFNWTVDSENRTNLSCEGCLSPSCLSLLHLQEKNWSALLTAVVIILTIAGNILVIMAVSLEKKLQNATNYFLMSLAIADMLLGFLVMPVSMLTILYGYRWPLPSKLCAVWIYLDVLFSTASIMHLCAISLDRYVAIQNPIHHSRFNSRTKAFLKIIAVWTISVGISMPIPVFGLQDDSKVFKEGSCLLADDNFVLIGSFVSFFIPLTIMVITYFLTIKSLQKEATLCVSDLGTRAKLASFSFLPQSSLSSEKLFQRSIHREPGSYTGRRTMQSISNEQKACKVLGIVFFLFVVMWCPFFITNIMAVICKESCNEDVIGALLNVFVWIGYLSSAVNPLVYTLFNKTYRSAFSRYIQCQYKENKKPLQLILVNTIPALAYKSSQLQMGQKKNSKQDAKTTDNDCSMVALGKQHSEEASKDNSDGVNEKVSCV

Compound: CC(C)COc1ccc(CN2C(=O)OC3(CCN(C)CC3)[C@@H]2Cc2ccc(F)cc2)cc1 (single isomer, unassigned) [Example 78NLS59, 4-(4-fluorobenzyl)-3-(4-isobutoxybenzyl)-8-methyl-1-oxa-3,8-diaza-spiro[4.5]decan-2-one, hydrochloride]
- Emax (read-out: 5HT2A % inhibition, compared to ritanserin): 98%
- enantiomer activity at the 5-HT2A receptor (in words): eutomer

Compound: CC(C)COc1ccc(CN2C(=O)OC3(CCN(C)CC3)C2Cc2ccc(F)cc2)cc1 (single isomer, unassigned) [Example 78NLS62, 4-(4-fluorobenzyl)-3-(4-isobutoxybenzyl)-8-methyl-1-oxa-3,8-diaza-spiro[4.5]decan-2-one, hydrochloride]
- Emax (compared to ritanserin, read-out: 5HT2A % inhibition): 89%

- Percent Efficacy: 83%
Compound: COc1ccc(CC(=O)N(Cc2ccc(C)cc2)C2CCN(CC3CCCCC3)CC2)cc1 [Example 6HCH79-6, N-(1-(Cyclohexylmethyl)piperidin-4-yl)-N-((4-methylphenyl)methyl)-4-methoxy phenylacetamide]

Compound: COc1ccc(CC(=O)N(Cc2ccc(C)cc2)C2CCN(Cc3ccccc3)CC2)cc1 [Example 26HCH17, N-((4-Methylphenyl)methyl)-N-(1-(phenylmethyl)piperidin-4-yl)-4-methoxyphenylacetamide hydrochloride]
- Emax (read-out: Percent Efficacy): 94%
- IC50 (pIC50, Table 3): 5.01 nM

Compound: COc1ccc(CC(=O)N(Cc2ccc(C)cc2)C2CCN(Cc3ccccc3)C2)cc1 (centres unmarked) [Example 26HCH52, N-((4-Methylphenyl)methyl)-N-(1-(phenylmethyl)pyrrolidin-3-yl)-4-methoxyphenylacetamide]
- IC50 [1]: 49 nM
- Efficacy (average) [2]: 98

- Emax [3]: 103%
- IC50 [4]: 6.31 nM
Compound: Cc1ccc(CN(C(=O)NCc2ccccc2)C2CCNCC2)cc1 [Example 26HCH65, N-((4-Methylphenyl)methyl)-N-(piperidin-4-yl)-N′-phenylmethylcarbamide]

Compound: Cc1ccc(CN(C(=O)NCc2ccccc2)C2CCN(Cc3ccccc3Br)CC2)cc1 [Example 26HCH66-03, N-(1-((2-Bromophenyl)methyl)piperidin-4-yl)-N-((4-methylphenyl)methyl)-N′-phenylmethylcarbamide]
- IC50 [1]: 38 nM
- Efficacy (average) [2]: 76

Compound: CCc1ccc(CN2CCC(N(Cc3ccc(C)cc3)C(=O)NCc3ccccc3)CC2)s1 [Example 26HCH66-05, N-(1-((5-Ethylthien-2-yl)methyl)piperidin-4-yl)-N-((4-methylphenyl)methyl)-N′-phenylmethylcarbamide]
- Emax (read-out: Percent Efficacy): 126%
- IC50 [1]: 28.2 nM
- IC50 (pIC50, Table 3): 7.94 nM
- Efficacy (average) [2]: 109

- Emax [3]: 124%
- IC50 [4]: 12.6 nM
Compound: COc1ccc(CC(=O)N(Cc2ccc(C)cc2)C2CCNCC2)cc1 [Example 26HCH71B, N-((4-Methylphenyl)methyl)-N-(piperidin-4-yl)-4-methoxyphenylacetamide]

- Emax [3]: 94%
- IC50 [4]: 6.31 nM
Compound: COc1ccc(CC(=O)N(Cc2ccc(C)cc2)C2CCN(CCC(C)(C)C)CC2)cc1 [Example 26HCH79-5, N-(1-(3,3-Dimethylbutyl)piperidin-4-yl)-N-((4-methylphenyl)methyl)-4-methoxyphenylacetamide]

Compound: COc1ccc(CC(=O)N(Cc2ccc(C)cc2)C2CCN(Cc3ccccc3O)CC2)cc1 [Example 26HCH79-10, N-(1-((2-Hydroxyphenyl)methyl)piperidin-4-yl)-N-((4-methylphenyl)methyl)-4-methoxyphenylacetamide]
- Emax (read-out: Percent Efficacy): 102%
- IC50 (pIC50, Table 3): 15.8 nM

- Efficacy (average): 87
- IC50 [5]: 20 nM
Compound: COc1ccc(CC(=O)N(Cc2ccc(F)cc2)C2CCNCC2)cc1 [Example 26HCH80-7, N-((4-Fluorophenyl)methyl)-N-(piperidin-4-yl)-4-methoxyphenylacetamide]

- Efficacy (average): 91
- IC50 [5]: 61.7 nM
Compound: COc1ccc(CC(=O)N(Cc2cccc(Br)c2)C2CCNCC2)cc1 [Example 26HCH80-10, N-((3-Bromophenyl)methyl)-N-(piperidin-4-yl)-4-methoxyphenylacetamide]

Source: patent US20080051429A1, “USE OF 4-AMINO-PIPERIDINES FOR TREATING SLEEP DISORDERS” (priority 2006, published 2008)
